Assay results published in patent US20080200405A1, “Drug Resistance Reversal In Neoplastic Disease” (priority 2007, published 2008).
Where two headings read alike, the source gives them in different places.

Assays:
[1] = test system: Doxorubicin resistant SaOS2 cells; experiment: Cancer cell viability (MTT) in the presence or absence of doxorubicin; assay type: cell-based, human; conditions: compound 50 ug/mL, 3 days
[2] = test system: doxorubicin-sensitive and doxorubicin-resistant cells (osteosarcoma, breast cancer, neuroblastoma); experiment: Evaluation of chemoresistance, Compound 4 alone or combined with doxorubicin; assay type: cell-based, human
Procedure: A method for evaluating a compound's propensity to overcome cancer cell chemoresistance is described in “Caspase Inhibition Switches Doxorubicin-Induced Apoptosis To Senescence”, Abdelhadi Rebbaa, Xin Zheng, Pauline M Chou and Bernard L Mirkin, Oncogene (2003) 22, 2805-2811. Human neuroblastoma SKN-SH cells (ATCC Cat. No. HTB-11) were cultured in Dulbecco's Modified Eagles Medium (DMEM; Gibco, Grand Island, N.Y.) supplemented with 10% fetal bovine serum (FBS; Sigma-Aldrich, St. Louis, Mo.) at 37° C. in a 95% Air/5% CO2 atmosphere. Resistant human cancer cells to doxorubicin were selected by stepwise exposure to drug concentrations ranging from 10^−9M-10^−6M over 3 months. They were then subjected to treatment with the doxorubicin alone or in combination with hydroxylamine compounds. The cells were incubated with the drugs for 72 hours, and cell viability was measured by the MTT assay. This consists of adding 10 μl/well of MTT (5 mg/ml solution) and incubation for 4 h at 37° C. The precipitate formed is then solubilized by addition of 100 μl of HCL 0.5 N/Isopropanol and incubation for 15 hours at 37° C. The optical density is measured at 570 nm and cell survival is estimated by comparison to untreated cells. Each point represents 4 wells data represent average +/−SE. Additionally, molecular pathways that might be associated with increased chemo-responsiveness with these compounds were investigated.
Cytotoxic activity of doxorubicin and hydroxylamine analogs were quantitatively determined by a colorimetric assay utilizing 3-(4,5-dimethyl-2-thiazolyl) 2,5-diphenyl tetrazolium bromide (MTT; Sigma-Aldrich, St. Louis, Mo.). Briefly, cells were seeded at 10^4 cells/well in 96-well plates and maintained in culture for 24 hours at 37° C. in DMEM supplemented with 10% FBS. […] The optical density of this solution was measured at 570 nm and the percentage of viable cells estimated by comparison with untreated control cells.

[3] = test system: bFGF-induced angiogenesis in the CAM model; experiment: bFGF (FGF2)-stimulated CAM model; assay type: in vivo, chicken; conditions: bFGF/FGF2 1 ug, 30 ug injected
Procedure: (§1) In vivo neovascularization was examined by the method previously described by Auerbach et al. (J. Dev. Biol. 41:391-394 (1974)). Ten-day old chicken embryos were purchased from Spafas, Inc. (Preston, Conn.) and were incubated at 37° C. with 55% relative humidity. In the dark, with the aid of a candling lamp, a small hole was punctured in the shell concealing the air sac with a hypodermic needle. A second hole was punctured in the shell on the broadside of the egg directly over an […] portion of the embryonic membrane, as observed during candling. An artificial air sac was created beneath the second hole by applying gentle vacuum to the first hole using a small rubber squeeze bulb. The vacuum caused the chorioallantoic membrane (CAM) to separate from the shell.
For inducing angiogenesis, sterile filter disks were saturated with bFGF (1 μg/ml) (Life Technologies, Gaithersburg, Md.) or other pro-angiogenesis factors and control disks were saturated with PBS without Calcium and Magnesium. Control disks were saturated with PBS without Calcium and Magnesium.
After 24-48 hr, 10-25 ul of test agent was injected intravenously or added topically into the CAM membrane. Eight-Ten eggs/treatment group were used.
(§2) The number of vessel branch points contained in a circular region equal to the area of a filter disk was counted for each section. Percent inhibition data are expressed as the quotient of the experimental value minus the negative control value divided by the difference between the positive control value and the negative control value. One image was counted in each CAM preparation, and findings from eight CAM preparations were analyzed for each treatment condition. In addition, each experiment was performed three times. The resulting angiogenesis index is the mean ±SEM (Standard Error of Measurement) of new branch points in each set of treatment. Statistical analysis of blood vessel branching patterns are performed by 1-way analysis of variance (ANOVA) comparing experimental with corresponding control groups. Statistical significance differences are assessed at P value of <0.05.
The CAM model protocol was modified to include stimulus with bFGF. The effect of injected OT 551 was assayed.
TP-H was applied to the CAM model study to determine its respective anti-angiogenesis effects according to the materials and methods provided in Example 1. Basic Fibroblast Growth Factor (bFGF) was used to induce angiogenesis in the CAM model.
Compounds were introduced via injection to the CAM model study to determine its respective anti-angiogenesis effects according to the materials and methods provided in Example 1. bFGF was used to induce angiogenesis in the CAM model.

Lipid peroxidation = Lipid peroxidation inhibition (method of Ohkawa); assay type: biochemical
[4] = test system: Human whole blood clot formation; conditions: for Clot Strength - MA / Time to Clot Initiation R: TEG, human whole blood
Procedure: TEG: Human whole blood (±drugs) was added to the cylindrical cuvette (“cup”). […] The cup oscillates 4°45′ ( 1/12 radian) in either direction every 4.5 seconds, with a 1-second mid-cycle stationary period, resulting in a frequency of 0.1 Hz and a maximal shear rate of 0.1 per second. The pin was suspended by a torsion wire that acts as a torque transducer. […] The torque experienced by the pin (relative to the oscillation of the cup) was plotted as a function of time (Forsythe, S. A. M. S. K. M. S. (2000): “Comparative In Vitro Efficacy of Different Platelet Glycoprotein IIb/IIIa Antagonists on Platelet-Mediated Clot Strength Induced by Tissue Factor With Use of Thromboelastography.” Arteriosclerosis, Thrombosis, and Vascular Biology 20: 1162).
(Data represent mean ±SD, n=6 (blood form normal healthy volunteers), *P<0.01 as compared to control)

TNFα = experiment: Measurement of LPS Induced-TNFα in THP-1 Cells; assay type: cell-based, human; conditions: Homo sapiens, THP-1
lens endothelial cells = conditions: in vitro; cited from earlier work
[5] = test system: selenite induced cataract; experiment: Selenite induced cataract in mice; conditions: mouse, in vivo
Text: In addition, as mentioned above, there is no precedent for the prevention of growth factor-induced angiogenesis by either TEMPOL or hydroxylamines.

mouse V79 cells = conditions: cited from earlier work
[6] = test system: H2O2-induced angiogenesis in the CAM model; experiment: H2O2-induced angiogenesis in the CAM model; assay type: in vivo, chicken; conditions: for Branch pts ± SEM: H2O2 88 μM, 30 ng
Procedure: as §1
A pro-angiogenic agent was added to induce new blood vessel branches on the CAM of 10-day old embryos. Filter disks of #1 filter paper (Whatman International, United Kingdom) were punched using a small puncher and were soaked in 3 mg/mL cortisone acetate (Sigma, St. Louis, Mo.) in a solution (95% ethanol and water). The disks were subsequently air dried under sterile conditions. The disks were then suspended in PBS (Phosphate Buffered Saline) and placed on growing CAMs. Filters treated with TP-H (TEMPOL-H) or TEMPOL and/or H2O2 or TP-H and/or bFGF or VEGF were placed on the first day of the 3-day incubation.
as §2
TP-H (TEMPOL-H, the hydroxylamine reduced form of the nitroxide 4-hydroxy-2,2,6,6-tetramethylpiperidin-1-yloxy) or TEMPOL (4-hydroxy-2,2,6,6-tetramethylpiperidine-N-oxyl radical) was applied to the CAM model study to determine its respective anti-angiogenesis effects according to the materials and methods provided in Example 1. H2O2 was used to induce angiogensis in the CAM model.

[7] = Bevacizumab 1 ng/cup + Comp. 4 1 uM
[8] = Bevacizumab 1 ng/cup + Comp. 4 10 uM
[9] = Ranibizumab 1 ng/cup + Comp. 4 1 uM
[10] = Ranibizumab 1 ng/cup + Comp. 4 10 uM

With `CC1(C)CC(Oc2nsnc2N2CCOCC2)CC(C)(C)N1O.Cl` [Compound 4, 4-(4-(2,2,6,6-tetramethylpiperidin-1-hydroxyl-4-yloxy)-1,2,5-thiazol-3-yl)morpholine hydrogen chloride] the “Mean OD (×10^−3), MTT viability” value ([1]; Dox. 10^−6 M (+)) was 88.00 ×10^−3, the “Mean OD (×10^−3), MTT viability” value ([1]; absence of Dox. (−)) was 468.50 ×10^−3 and the “underlying mechanism (cell cycle arrest, apoptosis markers)” value [2] was “increased expression of p21/WAF1 and caspase-3 activation”. The “reversal of drug resistance” value ([2]; combined with doxorubicin, osteosarcoma, breast cancer, neuroblastoma) was “strong ability to reverse drug resistance”, the “killing of cells, compound alone” value ([2]; doxorubicin-sensitive and doxorubicin-resistant cells) was “enhanced the killing of both doxorubicin-sensitive (P<0.001) and doxorubicin-resistant cells” and the inhibition in vivo at 0.03 mg ([3]; Gallus gallus, read-out: % Inhibition ± SEM) was 92.8 ± 16.5%. The “Branch pts ± SEM” value [3] was 72.3 ± 12.2, the “% Lipid Peroxidation inhibition (at 1 uM)” value (Lipid peroxidation; 1 uM) was 87.0% and the “Lipid Peroxidation Inhibition, % Inhibition” value (Lipid peroxidation; 10 uM) was 91.4%. For the same compound, the “Clot Strength - MA” value [4, 7] was 9.6 ± 2.3 mm, the “Time to Clot Initiation R” value [4, 7] was 14.3 ± 2.2 min and the “Clot Strength - MA” value [4, 8] was 5.0 ± 1.2 mm. For the same compound, the “Time to Clot Initiation R” value [4, 8] was 21.3 ± 4.2 min, the “Clot Strength - MA” value [4, 9] was 6.7 ± 1.5 mm and the “Time to Clot Initiation R” value [4, 9] was 16.8 ± 1.7 min. For the same compound, the “Clot Strength - MA” value [4, 10] was 2.7 ± 0.7 mm, the “Time to Clot Initiation R” value [4, 10] was 23.3 ± 2.3 min and the “effect on clot formation with Bevacizumab/Ranibizumab” value ([4]; compound 4 at 1 ug and 10 ug) was “delayed the clot formation”. It also gave an inhibition at 10 µM (TNFα; compound 10 uM, 5 ng/mL LPS, read-out: Mean Percent Inhibition of TNF-alpha using 5 ng/mL LPS) of 61 ± 10% and an IC50 (TNFα; read-out: TNFalpha IC50) of 6.7 µM.
In the case of `CC1(C)CC(O)CC(C)(C)N1[O]` [TEMPOL, 4-hydroxy-2,2,6,6-tetramethylpiperidine-N-oxyl radical, reference compound], the “prevention of X-ray radiation damage to lens endothelial cells” value (lens endothelial cells) is given as “prevented X-ray radiation damage”, the “prevention of selenite induced cataract” value [5] is given as “not effective” and the “radioprotection of mouse V79 cells” value (mouse V79 cells) is given as “concentration dependent”. For the same compound, the “Branch pts ± SEM” value ([6]; 100 μg) was 152.2 ± 18.8, the “Branch pts ± SEM” value ([6]; 200 μg) was 151.8 ± 12.5 and the “Branch pts ± SEM” value ([6]; 400 μg) was 150.0 ± 7.7. For the same compound, the “Branch pts ± SEM” value ([6]; 800 μg) was 122.8 ± 3.0 and the “inhibition of angiogenesis induced by super-maximal concentrations of H2O2” value ([6]; in vivo) was “effectively inhibited”.
